Measurements published in patent US10526580B2, “Differentiated cell population of endothelial cells derived from human pluripotent stem cells, composition, system, kit and uses thereof” (BIOCANT-ASSOCIAÇÃO DE TRANSFERÊNCIA DE TECNOLOGIA, priority 2012, dated 2020).
Structures can show the parent of a compound that is named as a salt.

System: hESC-derived ECs versus ACL cells
Experiment: High-throughput screening of LOPAC library, PrestoBlue cell viability, hESC-derived ECs versus ACL cells
Assay type: cell-based, human
Details: LOPAC screen, 4.5 μM, 4 days of incubation, PrestoBlue assay
Description: High-throughput screening (HTS). HUAECS (Lonza) and hESC-derived ECs were cultured in EGM-2 medium while human anterior cruciate ligament cells (ACL cells) were cultured in Dulbecco's modified Eagle's medium (DMEM; PAA) supplemented with 10% FBS, 0.2 mM ascorbic acid 2-phosphate magnesium salt (Sigma Aldrich), […] streptomycin and 100 U/mL penicillin (Life Technologies). ACL cells were isolated from patients that have signed an informed consent form, in compliance with the Dutch legislation. The ethical committee of Medisch Spectrum Twente Hospital approved the collection.
The LOPAC library (Sigma-Aldrich) was used to screen embryonic endothelial-specific cytotoxic compounds. The compounds were solubilized in DMSO. The final compound concentration used in the screen was 4.5 μM in a final volume of 200 μL per well (96-well plate). HUAECs, hESC-derived EC and ACL cells were seeded at 16,000 cells/well (HUAECs and hESC-derived ECs) and 5,000 cells/well (ACL cells) and allowed to reach near confluence (approximately two days). After two days, medium was exchanged and test compounds and controls were added to the 96-well plates (all wells contained 0.25% (v/v) DMSO). After 4 days of incubation, cell viability was assessed using a PrestoBlue (Invitrogen) assay. This assay is based on a resazurin-based solution that indicates the reducing power of living cells and therefore measures indirectly their number. For each measurement, cell medium was removed and the PrestoBlue solution (10%) was added for 3 h at 37° C. upon which the absorbance was measured at 560-590 nm.
Disruption of vascular development has been directly correlated with prenatal loss, malformations and neurodevelopmental problems^41-44. […] The library was screened at a single dosage of 4.5 μM in a volume of 200 μL per well of EGM-2 medium, containing 0.25% DMSO (v/v). […] Six compounds (danazol, chlorpromazine hydrochloride, ellipticine, 3′,4′-dichlorobenzamil, fluphenazine dihydrochloride and 7-cyclopentyl-5-(4-phenoxy)phenyl-7H-pyrrolo[2,3-d]pyrimidin-4-ylamine) affected cell viability in both cells by a difference of 20% (FIG. 4B). The six compounds belong to different classes: cell cycle, ion pumps, dopamine pathway, phosphorylation and hormone signaling. The compounds selected from the primary screen were then tested against hESC-derived ECs and HUAECs at eight different concentrations to obtain a dose-response curve (FIG. 4C and FIG. 14).

## C[C@@H]1O[C@@H](O[C@H]2C[C@@H](O)[C@]3(CO)[C@H]4[C@H](O)C[C@]5(C)[C@@H]([C@@H]6COC(=O)C6)CC[C@]5(O)[C@@H]4CC[C@]3(O)C2)[C@H](O)[C@H](O)[C@H]1O [Dihydroouabain]
  Differences (%) in cell viability (hESC-Derived ECs versus ACL cells): 97.0%

## c1ccc2c(c1)[I+]c1ccccc1-2 [Diphenyleneiodonium chloride]
  Differences (%) in cell viability (hESC-Derived ECs versus ACL cells): 69.6%

## CC[C@H]1CN2CCc3cc(OC)c(OC)cc3[C@@H]2C[C@@H]1C[C@H]1NCCc2cc(OC)c(OC)cc21 [Emetine dihydrochloride hydrate]
  Differences (%) in cell viability (hESC-Derived ECs versus ACL cells): 93.4%

## CC(C)[C@@]1(NC(=O)[C@@H]2C=C3c4cccc5[nH]cc(c45)C[C@H]3N(C)C2)O[C@@]2(O)[C@@H]3CCCN3C(=O)[C@H](Cc3ccccc3)N2C1=O [Ergocristine]
  Differences (%) in cell viability (hESC-Derived ECs versus ACL cells): 52.5%

## COc1cc([C@@H]2c3cc4c(cc3[C@@H](O[C@@H]3O[C@@H]5CO[C@@H](C)O[C@H]5[C@H](O)[C@H]3O)[C@H]3COC(=O)[C@H]23)OCO4)cc(OC)c1O [Etoposide]
  Differences (%) in cell viability (hESC-Derived ECs versus ACL cells): 59.6%

## NC(=O)OCC(COC(N)=O)c1ccccc1 [Felbamate]
  Differences (%) in cell viability (hESC-Derived ECs versus ACL cells): 50.5%

## CCOC(=O)C1=C(C)NC(C)=C(C(=O)OC)C1c1cccc(Cl)c1Cl (stereo not shown) [Felodipine]
  Differences (%) in cell viability (hESC-Derived ECs versus ACL cells): 58.1%

## COc1cccc2c1[C@@H]1CN(CCCCn3c(=O)[nH]c4c(sc5ncc(-c6ccccc6)nc54)c3=O)C[C@@H]1CO2 [Fiduxosin hydrochloride]
  Differences (%) in cell viability (hESC-Derived ECs versus ACL cells): 58.2%

## O=C1NCN(c2ccccc2)C12CCN(CCCC(c1ccc(F)cc1)c1ccc(F)cc1)CC2 [Fluspirilene]
  Differences (%) in cell viability (hESC-Derived ECs versus ACL cells): 86.7%

## COc1ccc(NC(=O)c2ccc(-c3ccc(-c4noc(C)n4)cc3C)cc2)cc1N1CCN(C)CC1 [GR 127935 hydrochloride]
  Differences (%) in cell viability (hESC-Derived ECs versus ACL cells): 66.1%

## COc1cc(OC)c(C=C2C(O)=Nc3ccccc32)c(OC)c1 [IC 261]
  Differences (%) in cell viability (hESC-Derived ECs versus ACL cells): 73.0%

## CC(=O)[C@]1(O)Cc2c(O)c3c(c(O)c2[C@@H](O[C@H]2C[C@H](N)[C@H](O)[C@H](C)O2)C1)C(=O)c1ccccc1C3=O [Idarubicin]
  Differences (%) in cell viability (hESC-Derived ECs versus ACL cells): 94.0%

## O=C1Nc2ccccc2/C1=C1/Nc2ccccc2/C1=N\O [Indirubin-3′-oxime]
  Differences (%) in cell viability (hESC-Derived ECs versus ACL cells): 85.5%

## O=S1(=O)N(CCN2CC=C(c3c[nH]c4cc(F)ccc34)CC2)c2cccc3c2N1CCC3 [LY-367,265]
  Differences (%) in cell viability (hESC-Derived ECs versus ACL cells): 51.1%

## CN1C[C@H](CNC(=O)OCc2ccccc2)C[C@@H]2c3cccc4c3c(cn4C)C[C@H]21 [Metergoline]
  Differences (%) in cell viability (hESC-Derived ECs versus ACL cells): 56.5%

## CSc1ccc2c(c1)C(N1CCN(C)CC1)Cc1ccccc1S2 (stereo not shown) [Methiothepin mesylate]
  Differences (%) in cell viability (hESC-Derived ECs versus ACL cells): 52.4%

## CC[C@H](C)C(=O)O[C@H]1CCC=C2C=C[C@H](C)[C@H](CC[C@@H]3C[C@@H](O)CC(=O)O3)[C@H]21 [Mevastatin]
  Differences (%) in cell viability (hESC-Derived ECs versus ACL cells): 98.0%

## COCC(=O)O[C@]1(CCN(C)CCCc2nc3ccccc3[nH]2)CCc2cc(F)ccc2[C@@H]1C(C)C [Mibefradil dihydrochloride]
  Differences (%) in cell viability (hESC-Derived ECs versus ACL cells): 62.2%

## O=C1c2c(O)ccc(O)c2C(=O)c2c(NCCNCCO)ccc(NCCNCCO)c21 [Mitoxantrone]
  Differences (%) in cell viability (hESC-Derived ECs versus ACL cells): 94.4%

## CCCCCCCC/C=C\CCCCCCCC(=O)NCCc1ccc(O)c(O)c1 [N-Oleoyldopamine]
  Differences (%) in cell viability (hESC-Derived ECs versus ACL cells): 54.8%

## Cc1ccc(S(=O)(=O)N[C@@H](Cc2ccccc2)C(=O)CCl)cc1 [N-p-Tosyl-L-phenylalanine chloromethyl ketone]
  Differences (%) in cell viability (hESC-Derived ECs versus ACL cells): 63.9%

## CC(C)[C@H]1c2ccc(F)cc2CC[C@@]1(CCN(C)CCCc1nc2ccccc2[nH]1)OC(=O)C1CC1 [NNC 55-0396]
  Differences (%) in cell viability (hESC-Derived ECs versus ACL cells): 98.4%

## O=C(Nc1ccc([N+](=O)[O-])cc1Cl)c1cc(Cl)ccc1O [Niclosamide]
  Differences (%) in cell viability (hESC-Derived ECs versus ACL cells): 97.6%

## COC(=O)Nc1nc2ccc(C(=O)c3cccs3)cc2[nH]1 [Nocodazole]
  Differences (%) in cell viability (hESC-Derived ECs versus ACL cells): 76.4%

## C[C@@H]1O[C@@H](O[C@H]2C[C@@H](O)[C@]3(CO)[C@H]4[C@H](O)C[C@]5(C)[C@@H](C6=CC(=O)OC6)CC[C@]5(O)[C@@H]4CC[C@]3(O)C2)[C@H](O)[C@H](O)[C@H]1O [Ouabain]
  Differences (%) in cell viability (hESC-Derived ECs versus ACL cells): 94.6%

## COc1cc([C@@H]2c3cc4c(cc3[C@H](O)[C@H]3COC(=O)[C@H]23)OCO4)cc(OC)c1OC [Podophyllotoxin]
  Differences (%) in cell viability (hESC-Derived ECs versus ACL cells): 75.7%

## CCC(=O)c1ccc2c(c1)N(CCCN(C)C)c1ccccc1S2 [Propionylpromazine hydrochloride]
  Differences (%) in cell viability (hESC-Derived ECs versus ACL cells): 50.3%

## CCN(CC)C(=O)N[C@H]1C[C@@H]2c3cccc4[nH]cc(c34)C[C@H]2N(C)C1 [R(+)-Terguride]
  Differences (%) in cell viability (hESC-Derived ECs versus ACL cells): 57.1%

## Cc1nc2n(c(=O)c1CCN1CCC(c3noc4cc(F)ccc34)CC1)CCCC2 [Risperidone]
  Differences (%) in cell viability (hESC-Derived ECs versus ACL cells): 56.9%

## CC(=O)c1c(O)c(C)c(O)c(Cc2c(O)c3c(c(C(=O)/C=C/c4ccccc4)c2O)OC(C)(C)C=C3)c1O [Rottlerin]
  Differences (%) in cell viability (hESC-Derived ECs versus ACL cells): 61.6%

## CCCN1CCC[C@@H](c2cccc(O)c2)C1.Cl [S(−)-3PPP hydrochloride]
  Differences (%) in cell viability (hESC-Derived ECs versus ACL cells): 51.8%

## N[C@@H](Cn1cc(I)c(=O)[nH]c1=O)C(=O)O [S-5-lodowillardiine]
  Differences (%) in cell viability (hESC-Derived ECs versus ACL cells): 52.8%

## [N-]=[N+]=Nc1ccc(C(=O)CSC[C@H](NC(=O)CC[C@H](N)C(=O)O)C(=O)NCC(=O)O)cc1 [S-(p-Azidophenacyl)glutathione]
  Differences (%) in cell viability (hESC-Derived ECs versus ACL cells): 61.3%

## Cc1nc(-c2ccc(-c3ccc(C(=O)N4CCc5cc6c(cc54)C4(CCN(C)CC4)CO6)cc3)c(C)c2)no1 [SB 224289 hydrochloride]
  Differences (%) in cell viability (hESC-Derived ECs versus ACL cells): 96.7%

## COc1cc2c(cc1C(F)(F)F)N(C(=O)Nc1cc(F)cc(-c3cccnc3)c1)CC2 [SB 228357]
  Differences (%) in cell viability (hESC-Derived ECs versus ACL cells): 62.7%

## Br.CN=c1nc(-c2ccccc2)n(-c2ccccc2)s1 [SCH-202676 hydrobromide]
  Differences (%) in cell viability (hESC-Derived ECs versus ACL cells): 53.2%

## COc1ccc(CCCOC(Cn2ccnc2)c2ccc(OC)cc2)cc1 (stereo not shown) [SKF 96365]
  Differences (%) in cell viability (hESC-Derived ECs versus ACL cells): 69.8%

## O=C(O)c1ccccc1Nc1cccc(OCc2ccc3ccccc3n2)c1 [SR 2640]
  Differences (%) in cell viability (hESC-Derived ECs versus ACL cells): 53.0%

## CN(C)S(=O)(=O)c1ccc2c(c1)/C(=C/c1cc3c([nH]1)CCCC3)C(=O)N2 [SU 6656]
  Differences (%) in cell viability (hESC-Derived ECs versus ACL cells): 61.5%

## C[n+]1cc2c3c(ccc2c2ccc4cc5c(cc4c21)OCO5)OCO3 [Sanguinarine chloride]
  Differences (%) in cell viability (hESC-Derived ECs versus ACL cells): 96.4%

## C/C(=C\c1ccc(C(=O)O)cc1)c1ccc2c(c1)C(C)(C)CCC2(C)C [TTNPB]
  Differences (%) in cell viability (hESC-Derived ECs versus ACL cells): 92.6%

## CC/C(=C(\c1ccccc1)c1ccc(OCCN(C)C)cc1)c1ccccc1 [Tamoxifen citrate]
  Differences (%) in cell viability (hESC-Derived ECs versus ACL cells): 98.3%

## CC(=O)O[C@H]1C(=O)[C@@]2(C)[C@H]([C@H](OC(=O)c3ccccc3)[C@]3(O)C[C@H](OC(=O)[C@H](O)[C@@H](NC(=O)c4ccccc4)c4ccccc4)C(C)=C1C3(C)C)[C@]1(OC(C)=O)CO[C@@H]1C[C@@H]2O [Taxol]
  Differences (%) in cell viability (hESC-Derived ECs versus ACL cells): 78.1%

## Cc1scc2c1N(C(=O)CN1CCN(C)CC1)c1ccccc1NC2=O [Telenzepine dihydrochloride]
  Differences (%) in cell viability (hESC-Derived ECs versus ACL cells): 68.9%

## CC(C)(C)c1ccc(C(O)CCCN2CCC(C(O)(c3ccccc3)c3ccccc3)CC2)cc1 (stereo not shown) [Terfenadine]
  Differences (%) in cell viability (hESC-Derived ECs versus ACL cells): 98.3%

## C/C=C(/C)C(=O)O[C@H]1C(C)=C2[C@H]([C@@H]1OC(=O)CCCCCCC)[C@@](C)(OC(C)=O)C[C@H](OC(=O)CCC)[C@@]1(O)[C@H]2OC(=O)[C@@]1(C)O [Thapsigargin]
  Differences (%) in cell viability (hESC-Derived ECs versus ACL cells): 94.8%

## CSc1ccc2c(c1)N(CCC1CCCCN1C)c1ccccc1S2 (stereo not shown) [Thioridazine hydrochloride]
  Differences (%) in cell viability (hESC-Derived ECs versus ACL cells): 51.6%

## CNCC[C@@H](Oc1ccccc1C)c1ccccc1 [Tomoxetine]
  Differences (%) in cell viability (hESC-Derived ECs versus ACL cells): 68.7%

## COc1cc2c(cc1OC)-c1c/c(=N\c3c(C)cc(C)cc3C)n(C)c(=O)n1CC2 [Trequinsin hydrochloride]
  Differences (%) in cell viability (hESC-Derived ECs versus ACL cells): 50.7%
